Measurements published in patent publication US20230287343A1, “METHOD FOR GENERATING A THREE-DIMENSIONAL NEUROMUSCULAR ORGANOID IN VITRO” (MAX-DELBRÜCK-CENTRUM FÜR MOLEKULARE MEDIZIN IN DER …, priority 2020, published 2023).
“Also recorded” adds a separate entry of the source.

Columns and labels:
[1] = system: neuromuscular organoids (NMOs); assay: Microelectrode array (MEA) recording of NMO electrical activity; format: cell-based, human; conditions: for local (single electrode) firings / synchronous network activity (paired electrode spikes): NMDA and 5-HT stimulation at day 50; for rhythmic activity (central pattern generator-like): NMDA/5-HT cocktail; for activity triggered by the drugs (fictive locomotion paradigm): cocktail of NMDA (10 uM) and 5-HT (40 uM); for suppression of electrical activity: APV 50 uM and CNQX 40 uM applied together
[2] = system: neuromuscular organoids (NMOs); assay: Contractile activity of NMOs before and after curare; format: cell-based, human; conditions: curare 10 uM, before and after treatment
Procedure: Video segments of equal length were recorded using a bright-field microscope (DMI1, Leica) in 3 different regions of the same organoid using 20× zoom. To quantify muscle contractions, each movie was analyzed separately where each visible contraction was counted and then averaged for the whole organoid.
To analyze and map organoid muscular contraction, bright field time series images were automatically thresholded using ImageJ software to identify organoid border. A binary stack was created and contractile regions were visually identified. Regions of interest were defined and variations of organoid area (in pixel), used as a proxy of physical contraction, were plotted over the time series.

NCCc1c[nH]c2ccc(O)cc12 [5-HT, Serotonin]
local (single electrode) firings [1]: increased single firings; also recorded: notable increase of local firings
synchronous network activity (paired electrode spikes) [1]: increase in paired electrode spikes; also recorded: dramatic increase of synchronous network activity
rhythmic activity (central pattern generator-like) ([1]; day 50 NMOs): activity became rhythmic; also recorded: produced rhythmic bursts of electrical activity
activity triggered by the drugs (fictive locomotion paradigm) [1]: instantaneously triggered strong activity

NC1=N[C@H](O)[C@H]2[C@H]3O[C@]4(O)O[C@@H]([C@@H](O)[C@@]2(N1)[C@@H]4O)[C@]3(O)CO [tetrodotoxin]
suppression of NMDA/5-HT triggered activity [1]: reversibly suppressed

CN[C@H](CC(=O)O)C(=O)O [NMDA]
local (single electrode) firings [1]: increased single firings; also recorded: notable increase of local firings
synchronous network activity (paired electrode spikes) [1]: increase in paired electrode spikes; also recorded: dramatic increase of synchronous network activity
rhythmic activity (central pattern generator-like) ([1]; day 50 NMOs): activity became rhythmic; also recorded: produced rhythmic bursts of electrical activity
activity triggered by the drugs (fictive locomotion paradigm) [1]: instantaneously triggered strong activity

N#Cc1cc2[nH]c(=O)c(=O)[nH]c2cc1[N+](=O)[O-] [CNQX]
suppression of electrical activity [1]: reversibly suppressed nearly all electrical activity

curare
contraction of the skeletal muscles (contractile activity of NMOs) [2]: blocked the contraction of the skeletal muscles; also recorded: organoid relaxation
block of acetylcholine-stimulated electrical activity ([1]; curare 10 uM, day 50 NMOs): rapidly and reversibly blocked

N[C@@H](CCCP(=O)(O)O)C(=O)O [APV]
suppression of electrical activity [1]: reversibly suppressed nearly all electrical activity

N[C@@H](CCC(=O)O)C(=O)O [glutamate]
increase of spontaneous activity ([1]; acute glutamate 50 uM, day 30 and day 50 organoids): approximately 12 fold
